Where a name gives a salt, the structure may show the parent alone.
Target: human MCH-1 receptor (Homo sapiens (Human), UniProt Q99705)
Assay: Binding assay for human melanin-concentrating hormone (MCH1) receptor
Conditions: membranes from CHO-K1 cells expressing human MCH-1 receptor; 1.4 nM [3H]-labeled radioligand; 60 min at 25° C.; Ki by Cheng Prusoff
Experimental: Evaluation of the affinity of compounds for the human MCH-1 receptor was accomplished using 4-(3,4,5-tritritiumbenzyloxy)-1-(1-(2-(pyrrolidin-1-yl)ethyl)-1H-indazol-5-yl)pyridin-2(1H)-one and membranes prepared from stable CHO-K1 cells expressing the human MCH-1 receptor obtained from Euroscreen (Batch 1138). Cell membrane homogenates (8.92 μg protein) were incubated for 60 min at 25° C. with 1.4 nM of the [^3H]-labeled compound in the absence or presence of the test compound in 50 mM Tris-HCl buffer, pH 7.4. Nonspecific binding was determined in the presence of 50 μM 1-(5-(4-cyanophenyl)bicyclo[3.1.0]hexan-2-yl)-3-(4-fluoro-3-(trifluoromethyl)phenyl)-1-(3-(4-methylpiperazin-1-yl)propyl)urea. Following incubation, the samples were filtered rapidly under vacuum through Skatron 11731 filters, pre-soaked in 0.5% polyethylenimine, and washed with ice-cold 50 mM Tris-HCl buffer, pH 7.4, (wash setting 9,9,0) using a Skatron cell harvester. The filters were counted for radioactivity in a liquid scintillation counter (Tri-Carb 2100TR, Packard) using a scintillation cocktail (Ultima Gold MV, Perkin Elmer).
The results are expressed as a percent inhibition of the control radioligand specific binding. The IC50 value (concentration causing a half-maximal inhibition of control specific binding) and Hill coefficient (nH) were determined by non-linear regression analysis of the competition curve using Hill equation curve fitting. The inhibition constant (Ki) was calculated from the Cheng Prusoff equation: (Ki=IC50/(1+(L/KD)), where L=concentration of radioligand in the assay, and KD=affinity of the radioligand for the receptor.

Sequence of human MCH-1 receptor (Q99705 whole entry): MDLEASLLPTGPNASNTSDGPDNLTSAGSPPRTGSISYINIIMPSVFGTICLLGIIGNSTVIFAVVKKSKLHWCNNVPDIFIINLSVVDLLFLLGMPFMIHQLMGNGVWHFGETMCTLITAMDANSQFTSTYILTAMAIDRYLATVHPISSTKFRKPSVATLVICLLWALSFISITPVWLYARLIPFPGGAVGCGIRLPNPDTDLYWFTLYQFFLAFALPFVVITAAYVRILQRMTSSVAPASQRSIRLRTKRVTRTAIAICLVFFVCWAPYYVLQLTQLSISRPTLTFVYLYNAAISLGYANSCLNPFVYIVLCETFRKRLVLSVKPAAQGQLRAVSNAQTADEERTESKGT

Compound	Ki [nM]
Cn1c2c(c3ccc(-n4ccc(OCc5ccccc5)cc4=O)cc31)CN1CCC2C1 (stereo not shown) [Example 2, 4-(Benzyloxy)-1-(6-methyl-3,4,5,6-tetrahydro-1H-2,5-methanoazepino[4,3-b]indol-8-yl)pyridin-2(1H)-one hydrochloride]	6.4
Cn1c2c(c3ccc(-n4ccc(OCc5ccccc5)cc4=O)cc31)CN1CCC2CC1 [Example 3, 4-(Benzyloxy)-1-(6-methyl-3,4,5,6-tetrahydro-1H-2,5-ethanoazepino[4,3-b]indol-8-yl)pyridin-2(1H)-one hydrochloride]	5.9
Cn1c2c(c3ccc(-n4ccc(OCc5ccc(F)cn5)cc4=O)cc31)CN1CCC2CC1 [Example 4, 4-((5-Fluoropyridin-2-yl)methoxy)-1-(6-methyl-3,4,5,6-tetrahydro-1H-2,5-ethanoazepino[4,3-b]indol-8-yl)pyridin-2(1H)-one hydrochloride]	44
Cn1c2c(c3ccc(-n4ccc(-c5ccc(C(F)(F)F)nn5)cc4=O)cc31)CN1CCC2CC1 [Example 5, 1-(6-Methyl-3,4,5,6-tetrahydro-1H-2,5-ethanoazepino[4,3-b]indol-8-yl)-4-(6-(trifluoromethyl)pyridazin-3-yl)pyridin-2(1H)-one hydrochloride]	23
Cn1c2c(c3ccc(-n4ccc(-c5ccc(C(F)(F)F)cn5)cc4=O)cc31)CN1CCC2CC1 [Example 6, 1-(6-Methyl-3,4,5,6-tetrahydro-1H-2,5-ethanoazepino[4,3-b]indol-8-yl)-4-(5-(trifluoromethyl)pyridin-2-yl)pyridin-2(1H)-one hydrochloride]	123
Cn1c2c(c3ccc(-n4ccc(OCc5ccc(C(F)(F)F)nc5)cc4=O)cc31)CN1CCC2CC1 [Example 7, 1-(6-Methyl-3,4,5,6-tetrahydro-1H-2,5-ethanoazepino[4,3-b]indol-8-yl)-4-((6-(trifluoromethyl)pyridin-3-yl)methoxy)pyridin-2(1H)-one hydrochloride]	11
Cn1c2c(c3ccc(-n4ccc(OCc5ccccc5)cc4=O)nc31)CN1CCC2CC1 [Example 8, 4-(Benzyloxy)-1-(10-methyl-7,8,9,10-tetrahydro-5H-6,9-ethanopyrido[3′,2′:4,5]pyrrolo[3,2-c]azepin-2-yl)pyridin-2(1H)-one hydrochloride]	29

Results, then the compound that gave them:

Ki [nM]	Compound
15	Cn1c2c(c3ccc(-n4ccc(OCc5ccc(F)cc5F)cc4=O)nc31)CN1CCC2CC1 [Example 9, 4-(2,4-Difluorobenzyloxy)-1-(10-methyl-7,8,9,10-tetrahydro-5H-6,9-ethanopyrido[3′,2′:4,5]pyrrolo[3,2-c]azepin-2-yl)pyridin-2(1H)-one hydrochloride]
15	Cn1c2c(c3ccc(-n4ccc(-c5ccc(C(F)(F)F)cc5)cc4=O)nc31)CN1CCC2CC1 [Example 10, 1-(10-Methyl-7,8,9,10-tetrahydro-5H-6,9-ethanopyrido[3′,2′:4,5]pyrrolo[3,2-c]azepin-2-yl)-4-(4-(trifluoromethyl)phenyl)pyridin-2(1H)-one hydrochloride]
25	Cn1c2c(c3ccc(-n4ccc(OCc5ccc(F)cn5)cc4=O)nc31)CN1CCC2CC1 [Example 11, 4-((5-Fluoropyridin-2-yl)methoxy)-1-(10-methyl-7,8,9,10-tetrahydro-5H-6,9-ethanopyrido[3′,2′:4,5]pyrrolo[3,2-c]azepin-2-yl)pyridin-2(1H)-one hydrochloride]

From patent US9073925B2, “Azinone-substituted azabicycloalkane-indole and azabicycloalkane-pyrrolo-pyridine MCH-1 antagonists, methods of making, and use thereof” (Albany Molecular Research, Inc., priority 2009, dated 2015)
